Experimental data as given in ChEMBL document CHEMBL3885881, “DrugMatrix”.

Species on record: Rattus norvegicus
Experiment: DrugMatrix - Regimen: Daily Repeat
Type: toxicity, organism-based, Sprague-Dawley
Design: regimen Daily Repeat, gender Male, age 6-8 weeks
Conditions: in vivo, po, 0 mg/kg, route oral GAVAGE, dose level Control, vehicle .5 % CMC; for BASOPHIL / EOSINOPHIL / ERYTHROCYTE COUNT / HEMATOCRIT / HEMOGLOBIN / LEUKOCYTE COUNT / LYMPHOCYTE / MEAN CORPUSCULAR HEMOGLOBIN / MEAN CORPUSCULAR HEMOGLOBIN CONCENTRATION / MEAN CORPUSCULAR VOLUME / MONOCYTE / NEUTROPHIL / PLATELET COUNT: tissue Blood; for ALANINE AMINOTRANSFERASE / ALBUMIN / ALKALINE PHOSPHATASE / ASPARTATE AMINOTRANSFERASE / BLOOD UREA NITROGEN / CHLORIDE / CHOLESTEROL / CREATINE PHOSPHOKINASE / CREATININE / GLUCOSE / PHOSPHORUS / POTASSIUM / SODIUM / TOTAL BILIRUBIN / TOTAL PROTEIN: tissue Plasma

C[C@]12C/C(=C/O)C(=O)C[C@@H]1CC[C@@H]1[C@@H]2CC[C@@]2(C)[C@H]1CC[C@]2(C)O [OXYMETHOLONE]
BASOPHIL (72 h, time 3 day): 0.68%
EOSINOPHIL (72 h, time 3 day): 0.46%
ERYTHROCYTE COUNT (72 h, time 3 day): 7.15 x10E6/uL
HEMATOCRIT (72 h, time 3 day): 45.44%
HEMOGLOBIN (72 h, time 3 day): 14.1 G/DL
LEUKOCYTE COUNT (72 h, time 3 day): 9.78 x10E3/uL
LYMPHOCYTE (72 h, time 3 day): 84.44%
MEAN CORPUSCULAR HEMOGLOBIN (72 h, time 3 day): 19.72 pg
MEAN CORPUSCULAR HEMOGLOBIN CONCENTRATION (72 h, time 3 day): 31 G/DL
MEAN CORPUSCULAR VOLUME (72 h, time 3 day): 63.66 fL
MONOCYTE (72 h, time 3 day): 2.14%
NEUTROPHIL (72 h, time 3 day): 11.16%
PLATELET COUNT (72 h, time 3 day): 1378.2 x10E3/uL
ALANINE AMINOTRANSFERASE (72 h, time 3 day): 42.33 u/L
ALBUMIN (72 h, time 3 day): 3.8 G/DL
ALKALINE PHOSPHATASE (72 h, time 3 day): 388.17 u/L
ASPARTATE AMINOTRANSFERASE (72 h, time 3 day): 68 u/L
BLOOD UREA NITROGEN (72 h, time 3 day): 16.17 mg/dL
CHLORIDE (72 h, time 3 day): 96.67 MEQ/L
CHOLESTEROL (72 h, time 3 day): 71 mg/dL
CREATINE PHOSPHOKINASE (72 h, time 3 day): 156.17 u/L
CREATININE (72 h, time 3 day): 0.57 mg/dL
GLUCOSE (72 h, time 3 day): 193.67 mg/dL
PHOSPHORUS (72 h, time 3 day): 11.43 mg/dL
POTASSIUM (72 h, time 3 day): 7 MEQ/L
SODIUM (72 h, time 3 day): 140.33 MEQ/L
TOTAL BILIRUBIN (72 h, time 3 day): 0.48 mg/dL
TOTAL PROTEIN (72 h, time 3 day): 6.8 G/DL
BASOPHIL (120 h, time 5 day): 1.47%
EOSINOPHIL (120 h, time 5 day): 1%
ERYTHROCYTE COUNT (120 h, time 5 day): 7.12 x10E6/uL
HEMATOCRIT (120 h, time 5 day): 45.47%
HEMOGLOBIN (120 h, time 5 day): 14.1 G/DL
LEUKOCYTE COUNT (120 h, time 5 day): 11.38 x10E3/uL
LYMPHOCYTE (120 h, time 5 day): 82.57%
MEAN CORPUSCULAR HEMOGLOBIN (120 h, time 5 day): 19.82 pg
MEAN CORPUSCULAR HEMOGLOBIN CONCENTRATION (120 h, time 5 day): 31.02 G/DL
MEAN CORPUSCULAR VOLUME (120 h, time 5 day): 63.88 fL
MONOCYTE (120 h, time 5 day): 2.2%
NEUTROPHIL (120 h, time 5 day): 11.97%
PLATELET COUNT (120 h, time 5 day): 1267 x10E3/uL
ALANINE AMINOTRANSFERASE (120 h, time 5 day): 38 u/L
ALBUMIN (120 h, time 5 day): 3.72 G/DL
ALKALINE PHOSPHATASE (120 h, time 5 day): 391 u/L
ASPARTATE AMINOTRANSFERASE (120 h, time 5 day): 65.83 u/L
BLOOD UREA NITROGEN (120 h, time 5 day): 14.17 mg/dL
CHLORIDE (120 h, time 5 day): 107.67 MEQ/L
CHOLESTEROL (120 h, time 5 day): 61 mg/dL
CREATINE PHOSPHOKINASE (120 h, time 5 day): 148.33 u/L
CREATININE (120 h, time 5 day): 0.57 mg/dL
GLUCOSE (120 h, time 5 day): 177.17 mg/dL
PHOSPHORUS (120 h, time 5 day): 12.07 mg/dL
POTASSIUM (120 h, time 5 day): 7.2 MEQ/L
SODIUM (120 h, time 5 day): 151.5 MEQ/L
TOTAL BILIRUBIN (120 h, time 5 day): 0.58 mg/dL
TOTAL PROTEIN (120 h, time 5 day): 6.72 G/DL
